According to PubChem BioAssay (NCI):
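Test compounds were applied to cells in 96-well plates for 48 hours at 5 doses. At the TGI there is no net growth.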

Tests used:
Experiment in all cases: growth of human tumour cells (NCI), 48 h
[1] = tested on: SNB-75 CNS
[2] = tested on: 786-0 renal
[3] = tested on: ACHN renal
[4] = tested on: MCF7 breast
[5] = tested on: NCI/ADR-RES ovarian
[6] = tested on: HT29 colon
[7] = tested on: UO-31 renal
[8] = tested on: OVCAR-3 ovarian
[9] = tested on: SW-620 colon
[10] = tested on: HCT-15 colon
[11] = tested on: IGROV1 ovarian
[12] = tested on: HL-60(TB) leukemia
[13] = tested on: RXF 393 renal
[14] = tested on: PC-3 prostate
[15] = tested on: SK-OV-3 ovarian
[16] = tested on: NCI-H226 lung
[17] = tested on: SK-MEL-2 melanoma
[18] = tested on: SN12C renal
[19] = tested on: NCI-H522 lung
[20] = tested on: UACC-62 melanoma
[21] = tested on: M14 melanoma
[22] = tested on: MDA-N
[23] = tested on: OVCAR-4 ovarian
[24] = tested on: HOP-92 NSCLC
[25] = tested on: MDA-MB-435
[26] = tested on: LOX IMVI melanoma
[27] = tested on: HCC-2998 colon
[28] = tested on: TK-10 renal
[29] = tested on: EKVX NSCLC
[30] = tested on: NCI-H23 lung
[31] = tested on: T-47D breast
[32] = tested on: OVCAR-8 ovarian
[33] = tested on: SR leukemia
[34] = tested on: SF-295 CNS
[35] = tested on: SF-539 CNS
[36] = tested on: A549 NSCLC
[37] = tested on: SF-268 CNS
[38] = tested on: SNB-19 CNS
[39] = tested on: MALME-3M melanoma
[40] = tested on: MDA-MB-231 breast
[41] = tested on: UACC-257 melanoma
[42] = tested on: U251 CNS
[43] = tested on: BT-549 breast
[44] = tested on: OVCAR-5 ovarian
[45] = tested on: KM12 colon
[46] = tested on: NCI-H460 lung
[47] = tested on: HS 578T breast
[48] = tested on: RPMI-8226 leukemia
[49] = tested on: SK-MEL-5 melanoma
[50] = tested on: CAKI-1 renal
[51] = tested on: HCT-116 colon
[52] = tested on: MOLT-4 leukemia
[53] = tested on: HOP-62 NSCLC
[54] = tested on: CCRF-CEM leukemia
[55] = tested on: DU-145 prostate
[56] = tested on: COLO 205 colon
[57] = tested on: K-562 leukemia
[58] = tested on: SK-MEL-28 melanoma
[59] = tested on: A498 renal

`Cc1c(C(=O)O)c2cc3ccccc3cc2c(=O)n1C` gave a TGI [1] of over 10 µM, a TGI [2] of over 10 µM and a TGI [3] of over 10 µM. It also gave a TGI [4] of over 10 µM, a TGI [5] of over 10 µM and a TGI [6] of over 10 µM. The TGI [7] was over 10 µM, the TGI [8] was over 10 µM and the TGI [9] was over 10 µM. The TGI [10] was over 10 µM, the TGI [11] was over 10 µM and the TGI [12] was over 10 µM. The TGI [13] was over 10 µM, the TGI [14] was over 10 µM and the TGI [15] was over 10 µM. It also gave a TGI [16] of over 10 µM, a TGI [17] of over 10 µM and a TGI [18] of over 10 µM. It also gave a TGI [19] of over 10 µM, a TGI [20] of over 10 µM and a TGI [21] of over 10 µM. For the same molecule, the TGI [22] was over 10 µM, the TGI [23] was over 10 µM and the TGI [24] was over 10 µM. For the same molecule, the TGI [25] was over 10 µM, the TGI [26] was over 10 µM and the TGI [27] was over 10 µM. The TGI [28] was over 10 µM, the TGI [29] was over 10 µM and the TGI [30] was over 10 µM. The TGI [31] was over 10 µM, the TGI [32] was over 10 µM and the TGI [33] was over 10 µM. It also gave a TGI [34] of over 10 µM, a TGI [35] of over 10 µM and a TGI [36] of over 10 µM. For the same molecule, the TGI [37] was over 10 µM, the TGI [38] was over 10 µM and the TGI [39] was over 10 µM. It also gave a TGI [40] of over 10 µM, a TGI [41] of over 10 µM and a TGI [42] of over 10 µM. It also gave a TGI [43] of over 10 µM, a TGI [44] of over 10 µM and a TGI [45] of over 10 µM. For the same molecule, the TGI [46] was over 10 µM and the TGI [47] was over 10 µM.
`O=c1cc(-c2ccccc2)oc2ccc(Oc3nnnn3-c3ccccc3)cc12` showed a TGI [1] of over 92.5 µM, a TGI [48] of over 100 µM and a TGI [2] of over 100 µM. For the same molecule, the TGI [49] was over 100 µM, the TGI [3] was over 100 µM and the TGI [50] was over 86.5 µM. The TGI [4] was over 100 µM, the TGI [5] was over 100 µM and the TGI [51] was over 100 µM. It also gave a TGI [6] of over 100 µM, a TGI [52] of over 100 µM and a TGI [7] of over 100 µM. It also gave a TGI [8] of over 100 µM, a TGI [9] of over 100 µM and a TGI [10] of over 100 µM. For the same molecule, the TGI [53] was over 82.3 µM, the TGI [11] was over 100 µM and the TGI [12] was over 100 µM. The TGI [13] was over 76.1 µM, the TGI [54] was over 100 µM and the TGI [14] was over 100 µM. It also gave a TGI [15] of over 100 µM, a TGI [16] of over 100 µM and a TGI [17] of over 84.5 µM. It also gave a TGI [18] of over 100 µM, a TGI [19] of over 100 µM and a TGI [20] of over 100 µM. For the same molecule, the TGI [55] was over 100 µM, the TGI [21] was over 100 µM and the TGI [22] was over 100 µM. For the same molecule, the TGI [23] was over 100 µM, the TGI [24] was 58.1 µM and the TGI [25] was over 41.9 µM. It also gave a TGI [26] of over 100 µM, a TGI [27] of over 100 µM and a TGI [28] of over 100 µM. For the same molecule, the TGI [56] was over 100 µM, the TGI [29] was over 100 µM and the TGI [30] was over 93.2 µM. For the same molecule, the TGI [31] was over 100 µM, the TGI [57] was over 100 µM and the TGI [32] was over 100 µM. For the same molecule, the TGI [33] was over 100 µM, the TGI [34] was over 79.9 µM and the TGI [35] was over 86.8 µM. The TGI [36] was over 100 µM, the TGI [37] was 25.3 µM and the TGI [38] was over 82.6 µM. It also gave a TGI [58] of over 100 µM, a TGI [39] of over 100 µM and a TGI [41] of over 100 µM. The TGI [42] was over 74.7 µM, the TGI [43] was 70.7 µM and the TGI [44] was over 100 µM. It also gave a TGI [45] of over 100 µM, a TGI [59] of over 100 µM and a TGI [46] of over 100 µM. It also gave a TGI [47] of over 83 µM.
